Experimental findings from patent US20250041429A1, “COMPOUND HAVING BTK PROTEIN DEGRADATION ACTIVITY, AND MEDICAL USES THEREOF” (UBIX THERAPEUTICS, INC., priority 2021, published 2025) are described below.

The target of the experiment is T1, BTK protein (Homo sapiens, UniProt Q06187).
T1 construct: endogenous in cells; host or cells: TMD-8 cells
Nature of the experiment: Measurement of BTK protein degradation ability in TMD-8 cells (Western blotting). The experiment is classed as cell-based. As to conditions: harvested after 24 hours; for BTK degradation (%) 1 nM: compound 1 nM; for BTK degradation (%) 10 nM: compound 10 nM; for BTK degradation (%) 100 nM: compound 100 nM. An outline of the steps:
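TMD-8 cells (1×10^6/mL) were treated for 24 h with compound at 0.1, 1, 10 μM or 0.0001–0.1 μM, with DMSO as vehicle control. RIPA lysates were normalized by BCA assay. BTK was detected by Western blot with anti-BTK, using GAPDH or β-actin as loading controls, and imaged on LI-COR Odyssey.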
(In western blotting, separated proteins are transferred to a membrane and probed.)

T1 sequence (Q06187 whole entry): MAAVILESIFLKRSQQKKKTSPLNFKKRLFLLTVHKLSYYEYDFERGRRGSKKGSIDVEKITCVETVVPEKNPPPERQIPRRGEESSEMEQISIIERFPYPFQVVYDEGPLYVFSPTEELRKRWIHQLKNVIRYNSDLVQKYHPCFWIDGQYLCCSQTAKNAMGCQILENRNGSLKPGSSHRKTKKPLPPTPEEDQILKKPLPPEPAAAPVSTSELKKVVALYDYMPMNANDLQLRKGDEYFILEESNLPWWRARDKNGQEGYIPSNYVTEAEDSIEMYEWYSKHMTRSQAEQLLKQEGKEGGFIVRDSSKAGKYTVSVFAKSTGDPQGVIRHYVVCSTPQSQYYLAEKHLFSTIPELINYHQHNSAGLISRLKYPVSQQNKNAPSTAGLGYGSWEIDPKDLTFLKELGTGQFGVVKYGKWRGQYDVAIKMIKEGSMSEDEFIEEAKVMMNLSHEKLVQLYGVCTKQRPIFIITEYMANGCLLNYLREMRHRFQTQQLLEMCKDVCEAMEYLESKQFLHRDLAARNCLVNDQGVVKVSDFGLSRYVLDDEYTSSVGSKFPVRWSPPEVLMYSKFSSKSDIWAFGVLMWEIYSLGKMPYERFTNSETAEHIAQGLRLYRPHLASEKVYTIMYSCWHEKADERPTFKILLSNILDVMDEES

Regarding `Cc1cc(-c2ccnc(Nc3ccc(C4CCN(CC5CCN(c6ccc(OC7CCC(=O)NC7=O)cc6)CC5)CC4)cc3)n2)ccc1CNC(=O)c1cnn(C(C)C)c1` (stereo not drawn) [Example 49, N-(4-(2-((4-(1-((1-(4-((2,6-dioxopiperidin-3-yl)oxy)phenyl)piperidin-4-yl)methyl)piperidin-4-yl)phenyl)amino)pyrimidin-4-yl)-2-methylbenzyl)-1-isopropyl-1H-pyrazole-4-carboxamide], the “BTK degradation (%) 1 nM” value is 23.0%, the “BTK degradation (%) 10 nM” value is listed as 87.0% and the “BTK degradation (%) 100 nM” value was found to be 90.5%.

For `Cc1cc(-c2ccnc(Nc3ccc(N4CCN(CC5CCN(c6ccc(OC7CCC(=O)NC7=O)cn6)CC5)CC4)cc3)n2)ccc1CNC(=O)N1CC(OC(C)C)C1` (stereo not drawn) [Example 50, N-(4-(2-((4-(4-((1-(5-((2,6-dioxopiperidin-3-yl)oxy)pyridin-2-yl)piperidin-4-yl)methyl)piperazin-1-yl)phenyl)amino)pyrimidin-4-yl)-2-methylbenzyl)-3-isopropoxyazetidine-1-carboxamide], the “BTK degradation (%) 1 nM” value turned out to be 19.7%, the “BTK degradation (%) 10 nM” value is listed as 82.0% and the “BTK degradation (%) 100 nM” value came to 99.3%.

With `Cc1cc(-c2ccnc(Nc3ccc(C4CCN(CC5CCN(c6ccc(OC7CCC(=O)NC7=O)cn6)CC5)CC4)cc3)n2)ccc1CNC(=O)N1CC(OC(C)C)C1` (stereo not drawn) [Example 51, N-(4-(2-((4-(1-((1-(5-((2,6-dioxopiperidin-3-yl)oxy)pyridin-2-yl)piperidin-4-yl)methyl)piperidin-4-yl)phenyl)amino)pyrimidin-4-yl)-2-methylbenzyl)-3-isopropoxyazetidine-1-carboxamide], the “BTK degradation (%) 1 nM” value is recorded as 24.0%, the “BTK degradation (%) 10 nM” value is given as 86.7% and the “BTK degradation (%) 100 nM” value turned out to be 99.3%.

`Cc1cc(-c2ccnc(Nc3ccc(N4CCN(CC5CCN(c6ccc(NC7CCC(=O)NC7=O)cn6)CC5)CC4)cc3)n2)ccc1CNC(=O)N1CC(OC(C)C)C1` (stereo not drawn) [Example 52, N-(4-(2-((4-(4-((1-(5-((2,6-dioxopiperidin-3-yl)amino)pyridin-2-yl)piperidin-4-yl)methyl)piperazin-1-yl)phenyl)amino)pyrimidin-4-yl)-2-methylbenzyl)-3-isopropoxyazetidine-1-carboxamide]: the “BTK degradation (%) 1 nM” value is given as 24.0%, the “BTK degradation (%) 10 nM” value is listed as 92.0% and the “BTK degradation (%) 100 nM” value was determined as 99.3%.

As to `Cc1cc(-c2ccnc(Nc3ccc(C4CCN(CC5CCN(c6ccc(NC7CCC(=O)NC7=O)cn6)CC5)CC4)cc3)n2)ccc1CNC(=O)N1CC(OC(C)C)C1` (stereo not drawn) [Example 53, N-(4-(2-((4-(1-((1-(5-((2,6-dioxopiperidin-3-yl)amino)pyridin-2-yl)piperidin-4-yl)methyl)piperidin-4-yl)phenyl)amino)pyrimidin-4-yl)-2-methylbenzyl)-3-isopropoxyazetidine-1-carboxamide], the “BTK degradation (%) 1 nM” value worked out at 13.3%, the “BTK degradation (%) 10 nM” value was 86.7% and the “BTK degradation (%) 100 nM” value is 99.3%.

Consider `Cc1cc(-c2ccnc(Nc3ccc(N4CCN(CC5CCN(c6cccc(NC7CCC(=O)NC7=O)c6)CC5)CC4)cc3)n2)ccc1CNC(=O)N1CC(OC(C)C)C1` (stereo not drawn) [Example 54, N-(4-(2-((4-(4-((1-(3-((2,6-dioxopiperidin-3-yl)amino)phenyl)piperidin-4-yl)methyl)piperazin-1-yl)phenyl)amino)pyrimidin-4-yl)-2-methylbenzyl)-3-isopropoxyazetidine-1-carboxamide], for which the “BTK degradation (%) 1 nM” value is recorded as 38.7%, the “BTK degradation (%) 10 nM” value was 95.0% and the “BTK degradation (%) 100 nM” value was 99.7%.

As to `Cc1cc(-c2ccnc(Nc3ccc(N4CCN(CC5CCN(c6ccc(NC7CCC(=O)NC7=O)cc6)CC5)CC4)cc3)n2)ccc1CNC(=O)N1CC(OC(C)C)C1` (stereo not drawn) [Example 55, N-(4-(2-((4-(4-((1-(4-((2,6-dioxopiperidin-3-yl)amino)phenyl)piperidin-4-yl)methyl)piperazin-1-yl)phenyl)amino)pyrimidin-4-yl)-2-methylbenzyl)-3-isopropoxyazetidine-1-carboxamide], the “BTK degradation (%) 1 nM” value is 37.7%, the “BTK degradation (%) 10 nM” value was found to be 94.7% and the “BTK degradation (%) 100 nM” value came to 99.7%.

Turning to `Cc1cc(-c2ccnc(Nc3ccc(C4CCN(CC5CCN(c6ccc(NC7CCC(=O)NC7=O)cc6)CC5)CC4)cc3)n2)ccc1CNC(=O)N1CC(OC(C)C)C1` (stereo not drawn) [Example 56, N-(4-(2-((4-(1-((1-(4-((2,6-dioxopiperidin-3-yl)amino)phenyl)piperidin-4-yl)methyl)piperidin-4-yl)phenyl)amino)pyrimidin-4-yl)-2-methylbenzyl)-3-isopropoxyazetidine-1-carboxamide], the “BTK degradation (%) 1 nM” value is 13.7%, the “BTK degradation (%) 10 nM” value is recorded as 91.3% and the “BTK degradation (%) 100 nM” value is recorded as 99.7%.

Regarding `Cc1cc(-c2ccnc(Nc3ccc(N4CCN(CC5CCN(c6cccc(NC7CCC(=O)NC7=O)c6)CC5)CC4)cc3)n2)ccc1CNC(=O)c1cnn(C(C)C)c1` (stereo not drawn) [Example 57, N-(4-(2-((4-(4-((1-(3-((2,6-dioxopiperidin-3-yl)amino)phenyl)piperidin-4-yl)methyl)piperazin-1-yl)phenyl)amino)pyrimidin-4-yl)-2-methylbenzyl)-1-isopropyl-1H-pyrazole-4-carboxamide], the “BTK degradation (%) 1 nM” value worked out at 54.0%, the “BTK degradation (%) 10 nM” value came to 95.0% and the “BTK degradation (%) 100 nM” value turned out to be 99.5%.

Turning to `Cc1cc(-c2ccnc(Nc3ccc(N4CCN(CC5CCN(c6ccc(NC7CCC(=O)NC7=O)cn6)CC5)CC4)cc3)n2)ccc1CNC(=O)c1cnn(C(C)C)c1` (stereo not drawn) [Example 58, N-(4-(2-((4-(4-((1-(5-((2,6-dioxopiperidin-3-yl)amino)pyridin-2-yl)piperidin-4-yl)methyl)piperazin-1-yl)phenyl)amino)pyrimidin-4-yl)-2-methylbenzyl)-1-isopropyl-1H-pyrazole-4-carboxamide], the “BTK degradation (%) 1 nM” value amounted to 62.0%, the “BTK degradation (%) 10 nM” value is recorded as 97.5% and the “BTK degradation (%) 100 nM” value is 99.0%.

For `Cc1cc(-c2ccnc(Nc3ccc(N4CCN(CC5CCN(c6cccc(NC7CCC(=O)NC7=O)c6)CC5)CC4)cc3)n2)ccc1CNC(=O)c1cnn(C(C)(C)C)c1` (stereo not drawn) [Example 59, 1-(tert-butyl)-N-(4-(2-((4-(4-((1-(3-((2,6-dioxopiperidin-3-yl)amino)phenyl)piperidin-4-yl)methyl)piperazin-1-yl)phenyl)amino)pyrimidin-4-yl)-2-methylbenzyl)-1H-pyrazole-4-carboxamide], the “BTK degradation (%) 1 nM” value came to 72.0%, the “BTK degradation (%) 10 nM” value was found to be 97.0% and the “BTK degradation (%) 100 nM” value is recorded as 99.0%.

`Cc1cc(-c2ccnc(Nc3ccc(N4CCN(CC5CCN(c6ccc(NC7CCC(=O)NC7=O)cn6)CC5)CC4)cc3)n2)ccc1CNC(=O)c1cnn(C(C)(C)C)c1` (stereo not drawn) [Example 60, 1-(tert-butyl)-N-(4-(2-((4-(4-((1-(5-((2,6-dioxopiperidin-3-yl)amino)pyridin-2-yl)piperidin-4-yl)methyl)piperazin-1-yl)phenyl)amino)pyrimidin-4-yl)-2-methylbenzyl)-1H-pyrazole-4-carboxamide]: the “BTK degradation (%) 1 nM” value is 58.0%, the “BTK degradation (%) 10 nM” value is 96.5% and the “BTK degradation (%) 100 nM” value came to 99.5%.
